{
  "source": "patent US9284369B2",
  "about": "“Inhibition of angiogenesis” (Genentech, Inc., priority 2007, dated 2016)",
  "molecules": {"B1": {"name": "M-CSF: recombinant human M-CSF (R&D Systems) (protein, UniProt P09603 33-554, looked up)", "Macrophage colony-stimulating …": "EEVSEYCSHMIGSGHLQSLQRLIDSQMETSCQITFEFVDQEQLKDPVCYLKKAFLLVQDIMEDTMRFRDNTPNAIAIVQLQELSLRLKSCFTKDYEEHDKACVRTFYETPLQLLEKVKNVFNETKNLLDKDWNIFSKNCNNSFAECSSQDVVTKPDCNCLYPKAIPSSDPASVSPHQPLAPSMAPVAGLTWEDSEGTEGSSLLPGEQPLHTVDPGSAKQRPPRSTCQSFEPPETPVVKDSTIGGSPQPRPSVGAFNPGMEDILDSAMGTNWVPEEASGEASEIPVPQGTELSPSRPGGGSMQTEPARPSNFLSASSPLPASAKGQQPADVTGTALPRVGPVRPTGQDWNHTPQKTDHPSALLRDPPEPGSPRISSLRPQGLSNPSTLSAQPQLSRSHSSGSVLPLGELEGRRSTRDRRSPAEPEGGPASEGAARPLPRFNSVPLTDTGHERQSEGSFSPQLQESVFHLLVPSVILVLLAVGGLLFYRWRRRSHQEPQRADSPLEQPEGSPLTQDDRQVELPV"}, "B2": {"name": "IL-10: recombinant human IL-10 (PeproTech) (protein, UniProt P22301 19-178, looked up)", "Interleukin-10": "SPGQGTQSENSCTHFPGNLPNMLRDLRDAFSRVKTFFQMKDQLDNLLLKESLLEDFKGYLGCQALSEMIQFYLEEVMPQAENQDPDIKAHVNSLGENLKTLRLRLRRCHRFLPCENKSKAVEQVKNAFNKLQEKGIYKAMSEFDIFINYIEAYMTMKIRN"}},
  "type_in_all_cases": "cell-based",
  "key": {"Bv8 expression [1]": {"tested_on": "Bv8 expression", "test": "Regulation of Bv8 gene expression in cultured mouse BMMNCs (Taqman)", "details": "for up-regulation of Bv8 in unsorted BMMNCs: 10 ng/ml, 4 hr", "procedure": "RNA from tissues or cells was prepared using the RNeasy Mini Kit® (Qiagen). 50 ng total RNA per reaction was used for the real time PCR (Taqman™) analysis. For mouse/human Bv8 and EG-VEGF/Bv8 receptor 1 (PKR-1/EG-VEGFR1, R-1), testis RNA (BD Biosciences) served as control. For mouse/human EG-VEGF/Bv8 receptor 2 (PKR-2/EG-VEGFR2, R2), hypothalamus or whole brain (BD Biosciences) served as the control tissues. Reactions were run on 9600 Emulation mode of 7500 Real […] time PCR system (Applied Biosystems) and the absolute quantification with standard curve was used with Sequence Detection System (SDS) software. The expression level of each gene was further quantified against the house-keeping gene RPL19 in the same sample. To confirm the expression of VEGFR-1, VEGFR-2, EG-VEGF/Bv8 R1 and EG-VEGF/Bv8 R2 in the tumor-associated endothelial cells, standard RT-PCR was conducted using the Titan One Tube™ RT-PCR system (Roche) and the end products were checked on 2% agarose gel (Invitrogen) for the correct size. The sequence of Taqman™ primers are as follows: […]\nRecombinant mouse MCP-1, MIP-1α, MIP-1β, MIP-2, bFGF, VEGF, GM-CSF, G-CSF, SDF-1 and TNFα were purchased from R&D Systems (Minneapolis, Minn.). Recombinant mouse KC, IFNγ, Bv8 (Prokineticin-2), IL-4, IL-10, IL-13, TGF-β were from PeproTech Inc. (Rocky Hill, N.J.). […] Conditioned media at 1:3 dilution were used (final FBS concentration was 0.17%). Data were normalized against total cell number. BM cells were flushed from mouse leg bones with DMEM containing 10% FBS. Cells were centrifuged at 1200 rpm for 5 min and resuspended in HBSS media containing 0.2% BSA (low endotoxin, Serologicals Corp. Norcross, Ga.). Two million cells were incubated in 24-well plates with various cytokines for 4 hr at 37° C. in a 5% CO2 incubator. Cells were then transferred in eppendorf tubes, centrifuged and lysed by RNA lysis buffer (Qiagen, Valencia, Calif.). Bv8 expression was assessed by Taqman™ with RPL19 (Ribosomal Protein L19) as the internal control gene. In some cases, CD11b+Gr1+ or CD11b−Gr1− BM cells were obtained using FACS sorting."}, "Bv8 expression [2]": {"tested_on": "Bv8 expression", "test": "Regulation of Bv8 gene expression in cultured human blood and bone marrow cells (Taqman)", "details": "for induction of Bv8 expression in human neutrophils and whole bone marrow cells / Bv8 expression in monocytes and lymphocytes: 10 ng/ml, 4 hr", "procedure": "RNA was prepared using the RNeasy™ Mini Kit (Qiagen). 50 ng total RNA per reaction was used for the real time PCR (Taqman) analysis. For human Bv8, testis RNA (BD Biosciences) served as control. Reactions were run on 9600 Emulation mode of 7500 Real time PCR system (Applied Biosystems, Foster City, Calif.) and the absolute quantification with standard curve was used with Sequence Detection System (SDS) software. The expression level of each gene was further quantified relative to the housekeeping gene RPL19 in the same sample. The sequences of Taqman primers are as follows: Human Bv8 forward: ATG GCA CGG AAG CTA GGA (SEQ ID NO: 10), reverse: GCAGAGCTGAAGTCCTCTTGA (SEQ ID NO: 11), probe: TGCTGCTGGACCCTTCCTAAACCT (SEQ ID NO: 12); Human RPL19 forward: CGC AAG CGC CGT GAA (SEQ ID NO: 28), reverse: GGTCTCTTCCTCCTTGGATAAAGTC (SEQ ID NO: 29), probe: CCAGGCCAAGAAGGAGGAGATCATCA (SEQ ID NO: 30). Human specific VEGF forward: AAT GAC GAG GGC CTG GAG T (SEQ ID NO: 31), reverse: TTGATCCGCATAATCTGCATG (SEQ ID NO: 32), probe: TGTGCCCACTGAGGAGTCCAACATCA (SEQ ID NO: 33).\n(§1) Recombinant human MCP-1, MIP-1α, MIP-1β, MIP-2, bFGF, VEGF, GM-CSF, G-CSF, SDF-1α, M-CSF, Erythropoietin (EPO) and TNFα were purchased from R&D Systems (Minneapolis, Minn.). Recombinant human IL-8, IFNγ, Bv8 (Prokineticin-2), IL-4, IL-10, IL-13, TGF-β were from PeproTech Inc. (Rocky Hill, N.J.). SCF (Stem Cell factor) was from Invitrogen Biosource (Carlsbad, Calif.). In some cases, G-CSF from Amgen (Neupogen/Filgrastim) was used. All cytokines were used at 10 ng/ml. Freshly purified cells were washed and re-suspended in HBSS media containing 0.2% BSA (low endotoxin, Serologicals Corp. Norcross, Ga.). Two million cells were incubated in 24-well plates with various cytokines and chemokines for 4 hr at 37° C. in a 5% CO2 incubator. Cells were then transferred into eppendorf tubes, centrifuged and lysed with RNA lysis buffer (Qiagen, Valencia, Calif.). Bv8 expression was assessed by Taqman with RPL19 (Ribosomal Protein L19) as the internal control gene."}, "[3]": {"tested_on": "PKR2/EG-VEGFR2 expression", "test": "Regulation of PKR2/EG-VEGFR2 expression in human bone marrow cells and neutrophils", "description": "Taqman reagents for human PKR1/EG-VEGFR1 and PKR2/EG-VEGFR2 were obtained from Applied Biosystems.\nas §1"}, "Bv8 expression [4]": {"tested_on": "Bv8 expression", "test": "Bv8 expression in human leukemia cell lines", "procedure": "U937, HL-60, THP-1, Hel 92.1.7, KG-1, K562, Jurkat cells were obtained from the ATCC® (Manassas, Va.). Most cells were grown in 10% FBS-containing RPMI. KG-1 cells were grown in 20% FBS-containing Iscove's modified Dulbecco's medium. For THP-1 cells, 10% FBS-containing RPMI was used with Sodium Pyruvate, HEPES and β-mercaptoethanol. For regulation studies, 1 million cells with viability higher than 95% were used. Regulation studies were performed under both normoxia and hypoxia conditions for 4 hr in 1 ml HBSS media containing 0.2% BSA."}, "human neutrophils": {"tested_on": "human neutrophils", "test": "Chemotaxis of peripheral blood neutrophils", "procedure": "10^6 cells were washed with HBSS containing 0.2% BSA before putting into transwell insert with 5 μm pore size (Corning Incorporated, Lowell, Mass.). In the lower chamber, media alone or media with various cytokines at various concentrations (maximum at 200 ng/ml) was added. After 3 hr at 37° C., cells in the lower chamber were transferred, mixed with 9 ml ZPAK solution and counted on Z2 Coulter Particle Count and Size Analyzer (Beckman Coulter, Fullerton, Calif.)."}},
  "data": [
    {"molecule": "GM-CSF: recombinant mouse or human granulocyte-macrophage-CSF (R&D Systems)", "values": [
      {"measurement": "effect on Bv8 expression", "setting": "Bv8 expression [1]; BMMNCs and sorted subsets (FIG. 1 c&d)", "value": "no effect"},
      {"measurement": "induction of Bv8 expression in human neutrophils and whole bone marrow cells", "setting": "Bv8 expression [2]", "value": "~2.5", "unit": "fold"},
      {"measurement": "inhibition of Bv8 expression in human monocytes", "setting": "Bv8 expression [2]; 4 hr treatment", "value": "about 75%"},
      {"measurement": "regulation of PKR2/EG-VEGFR2 in human bone marrow", "setting": "[3]", "value": "regulate PKR2/EG-VEGFR2 to a significant level"},
      {"measurement": "up-regulation of PKR2/EG-VEGFR2 expression in human neutrophils", "setting": "[3]; 4 hr incubation, average", "value": 4, "unit": "fold"},
      {"measurement": "Bv8 expression in HL-60", "setting": "Bv8 expression [4]", "value": "Neither G-CSF nor GM-CSF affected Bv8 expression"},
      {"measurement": "induction of Bv8 expression in leukemia cell lines", "setting": "Bv8 expression [4]; any of the cell lines tested", "value": "no significant induction"}
    ]},
    {"molecule": "IL-1β: cytokine interleukin-1β", "values": [
      {"measurement": "induction of Bv8 expression in human neutrophils and whole bone marrow cells", "setting": "Bv8 expression [2]", "value": "no stimulatory effect"}
    ]},
    {"molecule": "IL-6: cytokine interleukin-6", "values": [
      {"measurement": "up-regulation of Bv8 in unsorted BMMNCs", "setting": "Bv8 expression [1]", "value": "did not show any significant stimulation"},
      {"measurement": "induction of Bv8 expression in human neutrophils and whole bone marrow cells", "setting": "Bv8 expression [2]", "value": "no stimulatory effect"}
    ]},
    {"molecule": "IL-8: recombinant human IL-8 (PeproTech)", "values": [
      {"measurement": "concentration required to stimulate neutrophil migration", "setting": "human neutrophils", "value": 20, "unit": "nM"}
    ]},
    {"molecule": "MCP-1: recombinant human MCP-1 (R&D Systems)", "values": [
      {"measurement": "effect on neutrophil migration", "setting": "human neutrophils; all concentrations tested, data not shown", "value": "did not show any effect"}
    ]},
    {"molecule": "SCF: Stem Cell factor (Invitrogen Biosource)", "values": [
      {"measurement": "induction of Bv8 expression in human neutrophils and whole bone marrow cells", "setting": "Bv8 expression [2]", "value": "no effect"}
    ]},
    {"molecule": "SDF-1: recombinant mouse SDF-1 (R&D Systems)", "values": [
      {"measurement": "up-regulation of Bv8 in unsorted BMMNCs", "setting": "Bv8 expression [1]", "value": "did not show any significant stimulation"}
    ]},
    {"molecule": "SDF-1α", "values": [
      {"measurement": "Bv8 expression in monocytes and lymphocytes", "setting": "Bv8 expression [2]", "value": "significant stimulatory effect only on monocytes"},
      {"measurement": "concentration required to stimulate neutrophil migration", "setting": "human neutrophils", "value": 20, "unit": "nM"}
    ]},
    {"molecule": "B1", "values": [
      {"measurement": "induction of Bv8 expression in human neutrophils and whole bone marrow cells", "setting": "Bv8 expression [2]", "value": "no effect"}
    ]},
    {"molecule": "B2", "values": [
      {"measurement": "Bv8 expression in monocytes and lymphocytes", "setting": "Bv8 expression [2]", "value": "up-regulated"}
    ]}
  ]
}
